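Results reflect a 48-hour exposure of cells in 96-well plates to compound at five concentrations. Definition used: TGI = concentration required for complete inhibition of growth.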
What was measured:
Experiment in all cases: growth of human tumour cells (NCI), 48 h
[1] = tested on: 786-0 renal
[2] = tested on: A498 renal
[3] = tested on: A549 NSCLC
[4] = tested on: ACHN renal
[5] = tested on: BT-549 breast
[6] = tested on: CAKI-1 renal
[7] = tested on: CCRF-CEM leukemia
[8] = tested on: COLO 205 colon
[9] = tested on: DU-145 prostate
[10] = tested on: EKVX NSCLC
[11] = tested on: HCC-2998 colon
[12] = tested on: HCT-116 colon
[13] = tested on: HCT-15 colon
[14] = tested on: HL-60(TB) leukemia
[15] = tested on: HOP-62 NSCLC
[16] = tested on: HOP-92 NSCLC
[17] = tested on: HS 578T breast
[18] = tested on: HT29 colon
[19] = tested on: IGROV1 ovarian
[20] = tested on: K-562 leukemia
[21] = tested on: KM12 colon
[22] = tested on: LOX IMVI melanoma
[23] = tested on: M14 melanoma
[24] = tested on: MALME-3M melanoma
[25] = tested on: MCF7 breast
[26] = tested on: MDA-MB-231 breast
[27] = tested on: MDA-MB-435
[28] = tested on: MDA-N
[29] = tested on: MOLT-4 leukemia
[30] = tested on: NCI-H226 lung
[31] = tested on: NCI-H23 lung
[32] = tested on: NCI-H460 lung
[33] = tested on: NCI-H522 lung
[34] = tested on: NCI/ADR-RES ovarian
[35] = tested on: OVCAR-3 ovarian
[36] = tested on: OVCAR-4 ovarian
[37] = tested on: OVCAR-5 ovarian
[38] = tested on: OVCAR-8 ovarian
[39] = tested on: PC-3 prostate
[40] = tested on: RPMI-8226 leukemia
[41] = tested on: SF-268 CNS
[42] = tested on: SF-295 CNS
[43] = tested on: SF-539 CNS
[44] = tested on: SK-MEL-2 melanoma
[45] = tested on: SK-MEL-28 melanoma
[46] = tested on: SK-MEL-5 melanoma
[47] = tested on: SK-OV-3 ovarian
[48] = tested on: SN12C renal
[49] = tested on: SNB-19 CNS
[50] = tested on: SR leukemia
[51] = tested on: SW-620 colon
[52] = tested on: T-47D breast
[53] = tested on: TK-10 renal
[54] = tested on: U251 CNS
[55] = tested on: UACC-257 melanoma
[56] = tested on: UACC-62 melanoma
[57] = tested on: UO-31 renal
[58] = tested on: RXF 393 renal
[59] = tested on: SNB-75 CNS

C=C1CC(Cn2ccc(=O)[nH]c2=O)(c2ccc(OC)cc2)OC1=O (stereo not drawn)
TGI [1]: 25.2 µM
TGI [2]: 31.6 µM
TGI [3]: 59.2 µM
TGI [4]: 33 µM
TGI [5]: 24.6 µM
TGI [6]: 19.6 µM
TGI [7]: 10.4 µM
TGI [8]: 14.5 µM
TGI [9]: 31.3 µM
TGI [10]: 41.5 µM
TGI [11]: 17.5 µM
TGI [12]: 20 µM
TGI [13]: 31.5 µM
TGI [14]: 7.45 µM
TGI [15]: > 100 µM
TGI [16]: 4.58 µM
TGI [17]: 56.9 µM
TGI [18]: 31.2 µM
TGI [19]: 31.6 µM
TGI [20]: 16 µM
TGI [21]: 35.5 µM
TGI [22]: 27.8 µM
TGI [23]: 21.2 µM
TGI [24]: 27 µM
TGI [25]: 16 µM
TGI [26]: 33.2 µM
TGI [27]: 30.8 µM
TGI [28]: 28 µM
TGI [29]: 8.25 µM
TGI [30]: 39.3 µM
TGI [31]: 29.2 µM
TGI [32]: > 67.6 µM
TGI [33]: 4.4 µM
TGI [34]: 38.9 µM
TGI [35]: 36.1 µM
TGI [36]: 35.1 µM
TGI [37]: 32.2 µM
TGI [38]: 46.8 µM
TGI [39]: 30.6 µM
TGI [40]: 12 µM
TGI [41]: 51.1 µM
TGI [42]: > 100 µM
TGI [43]: 41.2 µM
TGI [44]: 27.1 µM
TGI [45]: 33 µM
TGI [46]: 26.8 µM
TGI [47]: > 92.9 µM
TGI [48]: 19 µM
TGI [49]: > 100 µM
TGI [50]: 10.5 µM
TGI [51]: 16.1 µM
TGI [52]: 39.8 µM
TGI [53]: 25.2 µM
TGI [54]: 53.4 µM
TGI [55]: 35.3 µM
TGI [56]: 27.9 µM
TGI [57]: 31.7 µM

N#CCN1c2ccccc2CCC1Cl (stereo not drawn)
TGI [1]: > 10 µM
TGI [2]: > 10 µM
TGI [3]: > 10 µM
TGI [4]: > 10 µM
TGI [5]: > 10 µM
TGI [6]: > 10 µM
TGI [7]: > 10 µM
TGI [8]: > 10 µM
TGI [9]: > 10 µM
TGI [10]: > 10 µM
TGI [11]: > 10 µM
TGI [12]: > 10 µM
TGI [13]: > 10 µM
TGI [15]: > 10 µM
TGI [16]: > 10 µM
TGI [17]: > 10 µM
TGI [18]: > 10 µM
TGI [19]: > 10 µM
TGI [20]: > 10 µM
TGI [21]: > 10 µM
TGI [22]: > 10 µM
TGI [23]: > 10 µM
TGI [24]: > 10 µM
TGI [25]: > 10 µM
TGI [26]: > 10 µM
TGI [27]: > 10 µM
TGI [28]: > 10 µM
TGI [29]: > 10 µM
TGI [30]: > 10 µM
TGI [31]: > 10 µM
TGI [32]: > 10 µM
TGI [33]: > 10 µM
TGI [34]: > 10 µM
TGI [35]: > 10 µM
TGI [36]: > 10 µM
TGI [37]: > 10 µM
TGI [38]: > 10 µM
TGI [39]: > 10 µM
TGI [40]: > 10 µM
TGI [41]: > 10 µM
TGI [42]: > 10 µM
TGI [43]: > 10 µM
TGI [45]: > 10 µM
TGI [46]: > 10 µM
TGI [47]: > 10 µM
TGI [48]: > 10 µM
TGI [49]: > 10 µM
TGI [50]: > 10 µM
TGI [51]: > 10 µM
TGI [52]: > 10 µM
TGI [53]: > 10 µM
TGI [54]: > 10 µM
TGI [55]: > 10 µM
TGI [56]: > 10 µM
TGI [57]: > 10 µM

O=C(N/S(=N/S(=O)(=O)c1ccc(Br)cc1)C(Cl)(Cl)Cl)c1ccccc1 (stereo not drawn)
TGI [1]: > 100 µM
TGI [2]: > 100 µM
TGI [3]: > 100 µM
TGI [4]: > 100 µM
TGI [5]: > 100 µM
TGI [7]: > 100 µM
TGI [8]: > 100 µM
TGI [9]: > 100 µM
TGI [10]: > 100 µM
TGI [12]: > 100 µM
TGI [13]: > 100 µM
TGI [15]: > 100 µM
TGI [16]: 82 µM
TGI [17]: > 100 µM
TGI [18]: > 100 µM
TGI [19]: > 100 µM
TGI [20]: > 100 µM
TGI [21]: > 100 µM
TGI [22]: > 100 µM
TGI [23]: > 100 µM
TGI [24]: > 100 µM
TGI [25]: > 100 µM
TGI [26]: > 100 µM
TGI [27]: > 100 µM
TGI [28]: > 100 µM
TGI [29]: > 100 µM
TGI [30]: > 100 µM
TGI [31]: > 100 µM
TGI [32]: > 100 µM
TGI [34]: > 100 µM
TGI [35]: > 100 µM
TGI [36]: > 100 µM
TGI [37]: > 100 µM
TGI [38]: > 100 µM
TGI [39]: > 100 µM
TGI [40]: > 100 µM
TGI [58]: > 100 µM
TGI [41]: > 100 µM
TGI [42]: > 100 µM
TGI [43]: > 100 µM
TGI [44]: > 100 µM
TGI [45]: > 100 µM
TGI [46]: > 100 µM
TGI [47]: > 100 µM
TGI [48]: > 100 µM
TGI [49]: > 100 µM
TGI [59]: > 100 µM
TGI [50]: > 100 µM
TGI [51]: > 100 µM
TGI [52]: > 100 µM
TGI [53]: > 100 µM
TGI [54]: > 100 µM
TGI [55]: > 100 µM
TGI [56]: > 100 µM
TGI [57]: > 100 µM

CN(C)C=Nc1ccc2[nH]c3ccccc3c2c1
TGI [1]: 70 µM
TGI [2]: 60.1 µM
TGI [3]: > 100 µM
TGI [4]: > 100 µM
TGI [5]: > 100 µM
TGI [6]: > 100 µM
TGI [7]: > 100 µM
TGI [8]: 30.2 µM
TGI [9]: > 100 µM
TGI [10]: > 100 µM
TGI [12]: > 100 µM
TGI [13]: 46.5 µM
TGI [14]: 41.7 µM
TGI [15]: 57.7 µM
TGI [16]: 39 µM
TGI [17]: > 100 µM
TGI [18]: 43.8 µM
TGI [19]: > 100 µM
TGI [20]: 43.4 µM
TGI [22]: 34.2 µM
TGI [23]: 29.1 µM
TGI [24]: 54.7 µM
TGI [25]: > 100 µM
TGI [26]: 43.1 µM
TGI [27]: 33.9 µM
TGI [28]: 33 µM
TGI [29]: 83.3 µM
TGI [30]: 84 µM
TGI [31]: > 100 µM
TGI [34]: > 100 µM
TGI [35]: > 100 µM
TGI [36]: > 100 µM
TGI [37]: 96.5 µM
TGI [38]: > 100 µM
TGI [39]: > 100 µM
TGI [40]: 60.4 µM
TGI [58]: 79 µM
TGI [41]: > 100 µM
TGI [42]: > 100 µM
TGI [43]: 50.5 µM
TGI [44]: 35.3 µM
TGI [45]: 40 µM
TGI [46]: 30.4 µM
TGI [47]: > 100 µM
TGI [48]: > 100 µM
TGI [49]: > 100 µM
TGI [59]: > 100 µM
TGI [50]: 41 µM
TGI [52]: 97.7 µM
TGI [53]: 86.2 µM
TGI [54]: 68.6 µM
TGI [55]: 30.3 µM
TGI [56]: 40.6 µM
TGI [57]: 88.1 µM

COc1ccc(NC(=S)N/N=C/c2cccc(C)n2)cc1
TGI [1]: > 65 µM
TGI [2]: 90 µM
TGI [3]: > 100 µM
TGI [4]: 19.5 µM
TGI [5]: > 71 µM
TGI [6]: > 79 µM
TGI [7]: > 54 µM
TGI [8]: > 39.6 µM
TGI [9]: > 67.1 µM
TGI [10]: > 100 µM
TGI [11]: > 100 µM
TGI [12]: > 100 µM
TGI [13]: > 100 µM
TGI [14]: 6.06 µM
TGI [15]: 38.4 µM
TGI [16]: > 85.5 µM
TGI [17]: > 100 µM
TGI [18]: 14.9 µM
TGI [19]: 24.1 µM
TGI [20]: > 100 µM
TGI [21]: > 100 µM
TGI [22]: 33.2 µM
TGI [23]: 11.2 µM
TGI [24]: > 100 µM
TGI [25]: > 100 µM
TGI [26]: > 100 µM
TGI [27]: > 100 µM
TGI [28]: > 100 µM
TGI [29]: > 29.3 µM
TGI [30]: 53.8 µM
TGI [31]: > 100 µM
TGI [32]: > 42.9 µM
TGI [33]: 5.73 µM
TGI [34]: > 26.6 µM
TGI [35]: > 100 µM
TGI [36]: > 100 µM
TGI [37]: > 100 µM
TGI [38]: > 35.4 µM
TGI [39]: > 100 µM
TGI [40]: 62.1 µM
TGI [41]: > 66.9 µM
TGI [42]: 40.3 µM
TGI [43]: 34.2 µM
TGI [44]: > 100 µM
TGI [45]: > 100 µM
TGI [46]: > 36.5 µM
TGI [47]: 46.2 µM
TGI [48]: > 100 µM
TGI [49]: > 100 µM
TGI [59]: 81.8 µM
TGI [50]: > 37.5 µM
TGI [51]: > 100 µM
TGI [52]: > 100 µM
TGI [53]: > 100 µM
TGI [54]: 24.6 µM
TGI [56]: 10.7 µM
TGI [57]: 18 µM

Source: PubChem BioAssay (NCI)
